Counter-ions that a name gives are not always drawn. Like-named read-outs stand apart in the source and are kept apart here.
Experiments:
liver = experiment: CCl4 induced hepatotoxicity in rats (serum AST/ALT); format: in vivo, rat; conditions: for protection against CCl4 hepatotoxicity (in words): rats, serum enzyme levels
Description: In vivo experiments were performed to determine if alpha-TS administration protects the liver from chemical toxicity. The liver is the target organ for CCl4. CCl4 is a hepatotoxic agent that induces centrilobular liver necrosis through its metabolism to free radicals. Male Sprague-Dawley rats were given an intraperitoneal dose (100 mg/kg) of a tocopherol analog 24 hours prior to a CCl4 challenge (2.9g/kg given by oral garage). Forty eight hours after the challenge, the rats were sacrificed and the levels of aspartate aminotransferase (AST) and alanine aminotransferase (ALT) were measured.
As discussed above, SGOT levels provide a clinical assessment of hepatotoxicity (liver damage).
Succinate analogs were administered to male Sprague-Dawley rats 20 hours prior to a 1 g CCl4 /kg body weight oral challenge and the AST and ALT serum enzyme levels were measured 48 hours after the challenge.
Similar to the experiments were described above, the ionizable congeners were administered to Sprague-Dawley rats by i.p. injection of a 100 mg ionizable congener/kg body weight dose 20 hours prior to oral administration of a 1 g/kg dose of CCl4, and the AST and ALT levels were measured 48 hours after the CCl4 challenge.

male Sprague-Dawley rats = experiment: CCl4 induced lethality in rats; format: in vivo, rat; conditions: 1 g/kg
Description: The in vivo effect of alpha-TS was tested by administering a lethal oral dose of carbon tetrachloride (CC14) to male Sprague-Dawley rats.
In the experiment described in Table 3, a single dose of alpha-TS dissolved in peanut oil:ethanol (3:2) was given to male Sprague-Dawley rats. The dose was given 24 hours prior to an orally administered CCl4 challenge dissolved in peanut oil. Two to nine animals were tested per treatment. The control group comprised rats pretreated with the vehicle only. Survival was monitored for at least 7 days after the toxic insult.
In vivo experiments were performed to determine if the time the ionizable tocopherol analog (alpha-TS) is administered affects the cytoprotective functions. Male Sprague-Dawley rats were given a 100 mg/kg intraperitoneal dose of a tocopherol or succinate analog and were given a lethal dose of CCl4 (2.9g/kg by oral gavage). Table 7 contrasts the times of administration of the tocopherol or succinate analog and the times of administration of the lethal dose of CCl4 with the survival of the rats in the study (3to 6 rats per protective treatment).
Several tocopherol and succinate analogs were tested for CCl4 induced lethality. A single dose of the tocopherol or succinate analog was administered twenty four hours prior to orally administering 2.9 g CCl4 /kg body weight. Three to six animals were analyzed per treatment. The rats were monitored for seven days. […]

[1] = 100 mg/kg ip, 48 h after 1 g/kg CCl4 (Table 31)
[2] = 100 mg/kg ip, 48 h after 1 g/kg CCl4 (Table 33)
[3] = 100 mg/kg ip, 48 h after 1 g/kg CCl4 (Table 37)
[4] = 100 mg/kg ip, 48 h after 1 g/kg CCl4 (Table 38)
[5] = Rattus norvegicus, ip, 48 h, read-out: % Hepatoprotection
[6] = 100 mg/kg ip, peanut oil vehicle, 48 h after 1 g/kg CCl4 (Table 39)
[7] = 100 mg/kg ip, 48 h after 1 g/kg CCl4 (Table 40)
[8] = Rattus norvegicus, 100 mg/kg ip 20 h prior, 48 h after 1 g/kg CCl4, read-out: % Hepatoprotection
[9] = 100 mg/kg ip, 48 h after 1 g/kg CCl4 (Table 42)
[10] = 100 mg/kg ip, PEG 400 vehicle, 48 h after 1 g/kg CCl4 (Table 34)
[11] = 50 mg/kg ip, 48 h after 1 g/kg CCl4 (Table 41)
[12] = 100 mg/kg ip (dihydrocholesterol 80 + sodium sulfate 30 mg/kg), 48 h after 1 g/kg CCl4 (Table 35)
[13] = 20 h prior, 48 h after 1 g/kg CCl4 (Table 36)

## CC(=O)O[C@H]1CC[C@@]2(C)C(=CC[C@H]3[C@@H]4CC[C@H]([C@H](C)CCCC(C)C)[C@@]4(C)CC[C@@H]32)C1 [Cholesterol acetate, reference compound]
liver; [1]
  ALT: 0.96 ± 0.32 10^3 units/L
  AST: 3.06 ± 1.06 10^3 units/L
liver
  protection against CCl4 hepatotoxicity (in words): provided no protection

## CCCCCCCCCCCCCCCCO [Palmityl Alcohol, reference compound]
liver; [2]
  ALT: 1.840 ± 1.106 10^3 units/L
  AST: 8.70 ± 3.00 10^3 units/L
liver
  protection against CCl4 hepatotoxicity (in words): generally not protective

## C/C(=C\CO)CCC[C@H](C)CCC[C@H](C)CCCC(C)C [Phytol, reference compound]
liver; [3]
  ALT: 2.82 ± 0.54 10^3 units/L
  AST: 4.71 ± 1.00 10^3 units/L
liver
  protection against CCl4 hepatotoxicity (in words): generally not protective

## CC(C)[C@@H](C)/C=C/[C@@H](C)[C@H]1CC[C@H]2C3=CC=C4C[C@@H](OS(=O)(=O)O)CC[C@]4(C)[C@H]3CC[C@]12C [Ergosterol sulfate, potassium salt]
liver; [4]
  ALT: 0.28 ± 0.37 10^3 units/L
  AST: 0.58 ± 0.53 10^3 units/L
liver; [5]
  inhibition in vivo at 100 mg/kg: 86%
liver
  protection against CCl4 hepatotoxicity (in words): protection against hepatotoxicity

## C[C@]12CC[C@H](OC(=O)CCC(=O)O)CC1=CC[C@@H]1[C@@H]2CC[C@]2(C)C(=O)CC[C@@H]12 [Dehydroepiandosterone 3-succinate]
liver; [6]
  ALT: 3.89 ± 1.77 10^3 units/L
  AST: 10.42 ± 3.36 10^3 units/L
liver; [5]
  inhibition in vivo at 100 mg/kg: 0%

## CCCCCCCCCCCCOS(=O)(=O)[O-].[Na+] [Lauryl sulfate, sodium salt]
liver; [7]
  ALT: 1.40 ± 0.59 10^3 units/L
  AST: 5.00 ± 1.54 10^3 units/L
liver; [5]
  inhibition in vivo at 100 mg/kg: 26%
liver
  protection against CCl4 hepatotoxicity (in words): generally not protective

## C[C@]12CC[C@@H]3c4ccc(OS(=O)(=O)O)cc4CC[C@H]3[C@@H]1CCC2=O [Estrone sulfate, potassium salt]
liver; ip, 100 mg/kg, 48 h
  ALT: 0.87 ± 0.59 10^3 units/L
  AST: 4.19 ± 2.75 10^3 units/L
liver
  protection against CCl4 hepatotoxicity (in words): slight cytoprotection

## C[C@]12CCC(=O)C=C1CC[C@@H]1[C@@H]2[C@@H](O)C[C@@]2(C)[C@H]1CC[C@]2(O)C(=O)COC(=O)CCC(=O)O [Hydrocortisone 21-succinate, reference compound]
liver; [2]
  ALT: 1.596 ± 0.887 10^3 units/L
  AST: 6.18 ± 3.15 10^3 units/L
liver; [8]
  inhibition in vivo at 100 mg/kg: 25%
liver
  protection against CCl4 hepatotoxicity (in words): no cytoprotection was observed

## C[C@]12CC[C@@H]3c4ccc(O)cc4CC[C@H]3[C@@H]1CCC2=O [Estrone, reference compound]
liver; [9]
  ALT: 0.33 ± 0.30 10^3 units/L
  AST: 0.56 ± 0.45 10^3 units/L

## C/C(=C\COC(=O)CCC(=O)O)CCCC(C)CCCC(C)CCCC(C)C (centres unmarked) [Phytol succinate]
liver; [3]
  ALT: 1.70 ± 0.18 10^3 units/L
  AST: 3.29 ± 0.51 10^3 units/L
liver; [8]
  inhibition in vivo at 100 mg/kg: 27%
liver
  protection against CCl4 hepatotoxicity (in words): generally not protective

## CC(C)CCC[C@@H](C)[C@H]1CC[C@H]2[C@@H]3CC=C4C[C@@H](OC(=O)c5ccccc5C(=O)O)CC[C@]4(C)[C@H]3CC[C@]12C [Cholesteryl hydrogen phthalate]
liver; [10]
  ALT: 0.06 ± 0.03 10^3 units/L
  AST: 0.30 ± 0.12 10^3 units/L
liver; [5]
  inhibition in vivo at 100 mg/kg: 100%
liver
  protection against CCl4 hepatotoxicity (in words): potent cytoprotective agents in vivo

## CC(=O)Oc1ccc2c(c1)CCC1C2CC[C@]2(C)C(=O)CCC12 (some centres unmarked) [Estrone Acetate, reference compound]
liver; [9]
  ALT: 0.18 ± 0.08 10^3 units/L
  AST: 0.53 ± 0.24 10^3 units/L

## O=C(O)CCC(=O)O [Succinic Acid, Na Salt, reference compound]
Male Sprague-Dawley rats; 24 hours or 1 hour prior and daily thereafter
  Days Survived after CCl4: 2 days
Male Sprague-Dawley rats; single dose 24 h prior, CCl4 […]
  Days Survived After CCl4 Treatment: 2 days

## CC1=C(/C=C/C(C)=C/C=C/C(C)=C/C(=O)O)C(C)(C)CCC1 [Retinoic acid, reference compound]
liver; [11]
  ALT: 6.14 ± 0.74 10^3 units/L
  AST: 17.94 ± 0.71 10^3 units/L
liver; Rattus norvegicus, 50 mg/kg ip 20 h prior, 48 h after 1 g/kg CCl4, read-out: % Hepatoprotection
  inhibition in vivo at 50 mg/kg: -83%
liver
  protection against CCl4 hepatotoxicity (in words): potentiated CCl4 toxicity

## CCCCCCCCCCCCCCCCOC(=O)CCC(=O)O [Palmityl succinate]
liver; [2]
  ALT: 1.679 ± 0.881 10^3 units/L
  AST: 6.54 ± 3.61 10^3 units/L
liver; [8]
  inhibition in vivo at 100 mg/kg: 22%

## CC(C)CCC[C@@H](C)[C@H]1CC[C@H]2[C@@H]3CC=C4C[C@@H](OS(=O)(=O)O)CC[C@]4(C)[C@H]3CC[C@]12C [Cholesteryl 3-sulfate, sodium salt]
liver; [2]
  ALT: 0.240 ± .133 10^3 units/L
  AST: 0.86 ± 0.35 10^3 units/L
liver; [5]
  inhibition in vivo at 100 mg/kg: 90%
liver
  protection against CCl4 hepatotoxicity (in words): potent cytoprotective agents in vivo

## CCCCC/C=C\C/C=C\CCCCCCCCO [Linoleyl alcohol, reference compound]
liver; [12]
  ALT: 5.45 ± 1.10 10^3 units/L
  AST: 15.60 ± 2.98 10^3 units/L
liver
  protection against CCl4 hepatotoxicity (in words): potentiates CCl4 toxicity

## CC(C)[C@@H](C)/C=C/[C@@H](C)[C@H]1CC[C@H]2C3=CC=C4C[C@@H](OC(=O)CCC(=O)O)CC[C@]4(C)[C@H]3CC[C@]12C [Ergosterol succinate, tris salt]
liver; [4]
  ALT: 0.46 ± 0.25 10^3 units/L
  AST: 0.80 ± 0.28 10^3 units/L
liver; [5]
  inhibition in vivo at 100 mg/kg: 80%
liver
  protection against CCl4 hepatotoxicity (in words): protection against hepatotoxicity

## CCCCC/C=C\C/C=C\CCCCCCCCOC(=O)CCC(=O)O [Linoleyl succinate]
liver; [12]
  ALT: 1.44 ± 0.59 10^3 units/L
  AST: 4.47 ± 2.21 10^3 units/L
liver; [6]
  ALT: 1.95 ± 0.84 10^3 units/L
  AST: 5.60 ± 1.30 10^3 units/L
liver; [8]
  inhibition in vivo at 100 mg/kg: 46%

## CC(C)CCC[C@@H](C)[C@H]1CC[C@H]2[C@@H]3CC[C@H]4C[C@@H](OC(=O)CCC(=O)O)CC[C@]4(C)[C@H]3CC[C@]12C [Dihydrocholesterol succinate]
liver; [13]
  ALT: 0.39 ± 0.40 10^3 units/L
  AST: 0.44 ± 0.29 10^3 units/L
liver
  protection against CCl4 hepatotoxicity (in words): complete protection against hepatotoxicity

## CC(C)CCC[C@@H](C)[C@H]1CC[C@H]2[C@@H]3CC[C@H]4C[C@@H](OC(=O)CCC(=O)O)CC[C@]4(C)[C@H]3CC[C@]12C [Dihydrocholesterol succinate, tris salt]
liver; [3]
  ALT: 0.09 ± 0.03 10^3 units/L
  AST: 0.19 ± 0.05 10^3 units/L
liver; [5]
  inhibition in vivo at 100 mg/kg: 100%

## C[C@]12CC[C@@H]3c4ccc(OC(=O)CCC(=O)O)cc4CC[C@H]3[C@@H]1CCC2=O [Estrone 3-Succinate]
liver; [7]
  ALT: 0.51 ± 0.56 10^3 units/L
  AST: 1.71 ± 1.00 10^3 units/L
liver; [9]
  ALT: 0.32 ± 0.12 10^3 units/L
  AST: 0.70 ± 0.20 10^3 units/L
liver
  protection against CCl4 hepatotoxicity (in words): slight cytoprotection

## C[C@]12CC[C@H](OS(=O)(=O)O)CC1=CC[C@@H]1[C@@H]2CC[C@]2(C)C(=O)CC[C@@H]12 [Dehydroepiandosterone 3-sulfate]
liver; [10]
  ALT: 3.89 ± 0.81 10^3 units/L
  AST: 13.85 ± 0.37 10^3 units/L
liver; [5]
  inhibition in vivo at 100 mg/kg: 4%

## CC(C)[C@@H](C)/C=C/[C@@H](C)[C@H]1CC[C@H]2C3=CC=C4C[C@@H](O)CC[C@]4(C)[C@H]3CC[C@]12C [Ergosterol, reference compound]
liver; [4]
  ALT: 0.93 ± 0.48 10^3 units/L
  AST: 1.73 ± 0.58 10^3 units/L
liver; [6]
  ALT: 0.63 ± 0.45 10^3 units/L
  AST: 1.90 ± 0.73 10^3 units/L
liver
  protection against CCl4 hepatotoxicity (in words): cytoprotection from toxic CCl4 insults

Reference: US5336485A, “Method for protecting animals against tacrine induced cytotoxic injury using sterol compounds” (priority 1993, dated 1994)
